Data as given in patent US20060008849A1, “Methods for measuring chloride channel conductivity” (priority 2004, published 2006).

Tests used:
human CFTR channel = test: Sandell-Kolthoff (SK) assay on the outwardly rectifying CFTR channel, HTB-79 cells; type: cell-based
Experimental: HTB-79 cell line intrinsically expressing the human CFTR channel was obtained from ATCC. The CRL-1918 cell line, having a defective CFTR channel, was also obtained from ATCC. Cells were grown in Iscove's modified Dulbecco's medium consisting of Iscove's modified medium (CELLGRO, VA) and 4 mM L-glutamine, 1.5 g/L sodium bicarbonate, and 20% FBS (CELLGRO, VA). HTB-79 cells in Iscove's modified Dulbecco's medium (200 μl, approx. 500,000 cells/ml) were added to each well of a costar 96-well plate (Corning Costar, NY), and were incubated overnight in a tissue culture incubator at 37° C. under 90% air/5% CO2. Then, the Iscove's modified Dulbecco's medium was removed and 200 μl of iodine-loading buffer was added to each well of the plate. Cells were incubated for 2-4 hours at 37° C. under 90% air/5% CO2 and washed with DPBS (Invitrogen, CA) or culture medium. DPBS (100-200 μl) was added to each well. […] After the cells were incubated at room temperature for an additional 5 minutes, they were separated from the suspending buffer, and were lysed with 100 μl of cell lysis buffer (1% Triton X-100). The amount of I^− in the lysed cells was measured by the SK assay procedure described in Example 1. […] Forskolin stimulated adenylate cyclase activity resulting in increased level of cAMP, which in turn activated CFTR channel.

human GABAA channel = target: T1, human GABAA channel (UniProt P18508+P28472+P62813); test: Sandell-Kolthoff (SK) assay on the outwardly rectifying GABAA receptor (iodide efflux); type: cell-based; settings: IC50, decrease of GABAA channel conductivity
T1 construct: host or cells: ATCC CRL-2029 (WSS-1, HEK293-derived, by own knowledge)
T1 sequence (P62813 28-455): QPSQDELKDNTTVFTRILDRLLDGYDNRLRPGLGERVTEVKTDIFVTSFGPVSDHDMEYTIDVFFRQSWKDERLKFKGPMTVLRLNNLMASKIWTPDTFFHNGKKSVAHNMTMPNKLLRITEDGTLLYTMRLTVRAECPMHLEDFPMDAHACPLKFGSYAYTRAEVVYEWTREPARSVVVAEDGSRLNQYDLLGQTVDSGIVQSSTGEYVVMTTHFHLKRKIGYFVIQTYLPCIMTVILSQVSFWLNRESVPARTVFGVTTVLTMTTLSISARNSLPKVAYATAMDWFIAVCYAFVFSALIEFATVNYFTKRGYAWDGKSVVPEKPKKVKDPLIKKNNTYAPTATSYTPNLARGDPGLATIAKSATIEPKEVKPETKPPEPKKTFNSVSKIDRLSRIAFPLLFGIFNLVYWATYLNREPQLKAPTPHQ
T1 sequence (P28472 26-473): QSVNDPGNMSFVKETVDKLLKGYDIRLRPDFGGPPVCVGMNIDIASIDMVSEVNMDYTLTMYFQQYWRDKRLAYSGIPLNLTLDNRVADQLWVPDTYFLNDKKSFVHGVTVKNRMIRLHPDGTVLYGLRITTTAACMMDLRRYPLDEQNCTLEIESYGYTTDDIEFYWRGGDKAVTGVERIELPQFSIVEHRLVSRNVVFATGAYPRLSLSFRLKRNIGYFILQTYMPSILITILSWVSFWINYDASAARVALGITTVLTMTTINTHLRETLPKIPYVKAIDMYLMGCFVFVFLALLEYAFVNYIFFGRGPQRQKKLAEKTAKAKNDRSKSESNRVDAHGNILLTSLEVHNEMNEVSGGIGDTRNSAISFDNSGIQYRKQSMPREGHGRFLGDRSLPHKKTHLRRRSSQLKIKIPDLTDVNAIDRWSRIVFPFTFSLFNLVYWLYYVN
T1 sequence (P18508 39-466): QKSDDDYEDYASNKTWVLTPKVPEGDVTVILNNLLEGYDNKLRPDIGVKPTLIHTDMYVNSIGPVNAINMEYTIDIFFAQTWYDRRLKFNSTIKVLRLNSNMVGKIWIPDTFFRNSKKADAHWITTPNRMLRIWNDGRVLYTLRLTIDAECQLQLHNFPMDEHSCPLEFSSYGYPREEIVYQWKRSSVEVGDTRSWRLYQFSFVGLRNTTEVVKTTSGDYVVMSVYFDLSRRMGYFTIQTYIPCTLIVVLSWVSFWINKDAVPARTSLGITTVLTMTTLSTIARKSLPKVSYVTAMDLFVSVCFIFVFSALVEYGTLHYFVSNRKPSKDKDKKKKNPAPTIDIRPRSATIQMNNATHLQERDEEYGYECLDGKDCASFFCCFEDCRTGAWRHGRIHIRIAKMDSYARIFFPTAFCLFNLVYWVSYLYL
Experimental: In addition, the iodine loading buffer consisting of 150 mM NaI, 2 mM CaCl2, 0.8 mM NaH2PO4, 1 mM of MgCl2, and 5 mM of IK, 2% FBS (# 35-010-AV, CELLGRO, VA) pH7.4, was prepared by mixing and dissolving each described component into purified water, and adjusting the pH accordingly.
Cell line expressing human GABAA (Adenovirus type) was obtained from the American Type Culture Collection (ATCC, Cat No. CRL-2029). Cells were grown in supplemented DMEM medium consisting of DMEM medium (#10-017-CV, CELLGRO, VA), 4 mM L-glutamine, 1.5 g/L sodium bicarbonate, 4.5 g/L glucose, 1.0 mM sodium pyruvate, and 10% fetal bovine serum (# 35-010-AV, CELLGRO, VA)
Cells in supplemented DMEM medium (200 μl, approx. 250,000 cells/ml) were added to each well of a D-lysine coated 96-well plate (Corning, Cat No. 3667), and were incubated overnight in a tissue culture incubator at 37° C. under 90% air/10% CO2. Then, the supplemented DMEM medium was removed with a multichannel pipettor, and 200 μl iodine-loading buffer was added to each well with Rapid Plate™ (Zymark, MA). Cells were incubated for 2-4 hours at 37° C. under 90% air/10% CO2, and were subsequently washed with phosphate buffer saline (DPBS, Invitrogen, CA), or culture medium. […] The amount of I^− in the lysed cells was measured by the SK assay procedure described in Example 1.
IC50s were calculated with IDBS XL-fit model 205 (IDBS, UK).

Row | EC50 (human CFTR channel; one-half of activity with 100 μM Forskolin, read-out: EC50 for Forskolin, activation of CFTR channel) [µM] | Compound | lowest concentration at which activation of CFTR was detected (human CFTR channel) [nM] | IC50 (human GABAA channel; in the presence of 30 μM GABA) [µM] | IC50 (human GABAA channel; in the presence of 300 μM GABA) [µM]
1 | 1 | C=C[C@@]1(C)CC(=O)[C@]2(O)[C@@]3(C)[C@@H](O)CCC(C)(C)[C@@H]3[C@H](O)[C@H](OC(C)=O)[C@@]2(C)O1 [Forskolin] | 300 | – | –
2 | – | CN1CCc2cc3c(cc2[C@H]1[C@@H]1OC(=O)c2c1ccc1c2OCO1)OCO3 [Bicuculline] | – | ~1 | ~50
